Target: T1, hP2X7R (Homo sapiens, UniProt Q99572)
T1 construct: 3xFLAG (3flag); expressed in transfected cells; host or cells: rat striatum (female Wistar rats), transduced in vivo with the AAV vector rAAV_3flag-hP2X7R
T1 sequence (Q99572 1-595): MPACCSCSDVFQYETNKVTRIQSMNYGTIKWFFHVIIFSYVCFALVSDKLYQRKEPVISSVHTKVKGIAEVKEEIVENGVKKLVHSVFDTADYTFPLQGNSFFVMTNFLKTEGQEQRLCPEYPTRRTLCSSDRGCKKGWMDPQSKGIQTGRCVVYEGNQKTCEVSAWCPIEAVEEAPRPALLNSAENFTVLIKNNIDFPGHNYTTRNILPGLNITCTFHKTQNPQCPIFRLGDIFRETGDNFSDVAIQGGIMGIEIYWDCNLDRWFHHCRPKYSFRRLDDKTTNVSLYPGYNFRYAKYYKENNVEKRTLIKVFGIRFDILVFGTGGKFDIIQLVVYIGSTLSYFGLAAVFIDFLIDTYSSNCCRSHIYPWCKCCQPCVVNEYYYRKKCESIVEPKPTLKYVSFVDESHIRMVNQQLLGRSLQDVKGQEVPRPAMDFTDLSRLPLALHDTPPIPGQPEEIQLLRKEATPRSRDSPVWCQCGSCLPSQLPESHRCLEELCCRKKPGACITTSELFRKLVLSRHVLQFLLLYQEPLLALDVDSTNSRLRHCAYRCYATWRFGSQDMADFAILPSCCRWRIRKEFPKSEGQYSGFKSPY
Test: PET imaging in rats locally overexpressing hP2X7R in right striatum
Type: in vivo, rat
Conditions: PET
Protocol: Uptake of [^11C]SMW139 was 1.5-fold higher in the right striatum compared with the contralateral striatum at 4–15 min p.i. (n = 3; Fig. 6A,B, and Supplementary Figure S5, 5 weeks after vector injection). […] (2.85 ± 0.69 vs. 2.30 ± 0.36 in contralateral striatum) throughout the remainder of the scanning time.
Female rats were injected with the hP2X7R expressing vector in the right striatum, and eGFP expressing vector in the left striatum, which is described in detail in the Supplementary Information. […] To confirm stable expression of hP2X7R during the time period in which PET scanning studies were conducted, autoradiography experiments were performed both prior to and following PET experiments. In a dedicated small animal PET scanner (nanoPET, Mediso Ltd.), 60 min dynamic PET scans were acquired immediately after intravenous administration of 16–20 MBq of [^11C]SMW139. […] 45 min prior to tracer injection. After data reconstruction (details in Supplementary Information), images were analysed using the freely available AMIDE software (version 0.9.2; http://amide.sourceforge.net). ROIs were drawn around ipsi- and contralateral striata. Results are expressed as standardised uptake values (SUVs) and error bars indicate standard deviation.
Stereotactic injection of viral vector […]
to a 10 µL Hamilton syringe. […]
dorsoventral -0.64 cm relative to bregma. […]
minutes before removing it slowly.
Rats were sacrificed for in
Dynamic PET imaging was performed using dedicated small animal NanoPET/CT and NanoPET/MR scanners (Mediso Ltd., Budapest, Hungary) which are equipped with identical PET components. […]
anaesthetised with 4% and 2% isoflurane in oxygen (1 L·min-1) for induction and maintenance, respectively. Rats were positioned on the scanner bed and their respiratory rate was monitored during the entire scan, and anaesthesia was adjusted whenever required. Dynamic PET scans were acquired immediately after intravenous (i.v.) administration of 16-20 MBq of [11C]SMW139 via the tail vein. For […]
hydroxypropyl)-β-cyclodextrin in water for injection 45 min prior to tracer injection. PET scans were acquired in list mode and rebinned into the following frame sequence: 4 × 5, 4 x 10, 2 x 30, 3x 60, 2 x 300, 1 x 600, 1 x 900 and 1 x 1200 s. Reconstruction was performed using a fully 3-dimensional reconstruction algorithm (Tera-TomoTM, Mediso Ltd.) with 4 iterations and 6 subsets, and an isotropic 0.4 mm voxel dimension. Images were analysed using the freely available AMIDE software (version 0.9.2; http://amide.sourceforge.net). 3D ellipsoid ROIs (dimensions x = 3.4 mm, y = 3.6 mm, z = 2.9 […]
mm) were drawn within ipsi- and contralateral striata. Results are expressed as standardised uptake values (SUVs) and error bars indicate standard deviation. SUV were calculated as follows, with cimg in MBq/mL, injected dose in MBq and bodyweight in kg:
An unpaired two-tailed t-test was used for statistical analysis of PET data, which was performed using […]
allowed to recover for 1 week after scanning. After 1 week of recovery following the final scan (12 weeks after stereotactic vector injection) animals were sacrificed, and brains were excised and stored […]
Extended single microdose toxicity study
A single microdose toxicity study according to EMEA guideline EMA/CPMP/ICH/286/1995 (December 2009) was performed in healthy Wistar rats at a 1000 times higher dose than the maximal dose […]
minimum specific activity of 18.5 GBq·µmol-1). Animals were allowed to acclimatise for 10 days, group-housed and in an enriched environment with food and water available ad libitum, and with a 12-hour light-dark cycle in a temperature controlled room.

SMILES: [11CH3]Oc1ccc(Cl)c(C(=O)NCC23CC4(F)CC(F)(CC(F)(C4)C2)C3)c1 [[^11C]SMW139]
- Time of peak of ipsi- to contralateral striatum ratio after tracer injection: ≤ 15 min
- Uptake in right (hP2X7R) striatum compared with contralateral striatum (4–15 min p.i., n = 3, 5 weeks after vector injection): 1.5 fold
- Uptake in rAAV_3flag-hP2X7R striatum after pre-treatment with JNJ-47965567 (2 min p.i., JNJ-47965567 30 mg·kg^−1 s.c. 45 min prior to tracer, n = 3, 11 weeks after vector injection): 2.40 ± 0.22 SUV
- Uptake in contralateral striatum (2 min p.i., baseline): 2.30 ± 0.36 SUV
- Uptake in rAAV_3flag-hP2X7R striatum (2 min p.i., baseline): 2.85 ± 0.69 SUV
